Results on one compound are retold here after patent publication US20260242759A1, “GQ/11 Protein Peptidomimetics” (Vrije Universiteit Brussel, priority 2022, published 2026).

Non-standard residues stand in square brackets, D forms with d. Residues, ends and D or L forms follow the SMILES beside them. Cha = N[C@@H](CC1CCCCC1)C(=O)O

For series [1], the target named is T1, human muscarinic 1 receptor (M1R) (Homo sapiens, UniProt P11229).
T1 construct: The M1R constructs used in this assay consisted of the full-length human muscarinic 1 receptor; FLAG (N); expressed in transfected cells; membrane extracts
T1 sequence (P11229 1-460): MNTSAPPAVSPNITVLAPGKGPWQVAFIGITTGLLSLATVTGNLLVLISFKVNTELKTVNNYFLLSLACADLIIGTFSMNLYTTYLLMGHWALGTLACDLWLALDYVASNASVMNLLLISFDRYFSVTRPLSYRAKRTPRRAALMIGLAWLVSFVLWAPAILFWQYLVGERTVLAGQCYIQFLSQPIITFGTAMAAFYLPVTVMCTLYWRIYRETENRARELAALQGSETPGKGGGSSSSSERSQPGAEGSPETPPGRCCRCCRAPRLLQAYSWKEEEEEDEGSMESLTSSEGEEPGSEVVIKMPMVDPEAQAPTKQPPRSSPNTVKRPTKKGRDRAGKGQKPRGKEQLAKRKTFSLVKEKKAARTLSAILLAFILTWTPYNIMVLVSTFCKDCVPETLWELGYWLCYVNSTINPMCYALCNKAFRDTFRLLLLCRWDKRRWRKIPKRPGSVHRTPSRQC
The series is described as follows: Radioligand binding assay (RLA) on M1R membrane extracts. To be noted: IC50 of agonist without mimetic divided by IC50 with mimetic; averaged value. An excerpt:
A radioligand displacement assay can quantify the pharmacological stabilization of the GPCR in the active conformation by comparing the affinities of an agonist for the basal versus the active GPCR conformer. In particular, stabilization of a GPCR in an active conformational state or specific binding to a GPCR in an active conformational state by a G protein peptidomimetic or a Gq/11 protein peptidomimetic as disclosed herein can be determined based on the shift in IC50 value of a ligand, in particular an agonist more particularly an orthosteric agonist, which binds to the GPCR when tested in the presence and the absence of the G protein peptidomimetic or the Gq/11 protein peptidomimetic. During the assay, the binding affinity of an orthosteric agonist for the receptor in presence and absence of the (allosteric) peptidomimetic is determined. Therefore, the GPCR, e.g. embedded in membrane extracts, is incubated with a radioligand and different concentrations of the agonist. By increasing the agonist concentration, radioligand will be displaced by the agonist. A leftward shift of the curve in the presence of the peptidomimetic is indicative of a peptidomimetic capable of stabilizing a GPCR in an active conformational state. A “shift” in IC50 value or IC50 shift is defined herein as the IC50 ratio of a ligand, in particular an agonist, more particularly an orthosteric agonist, which binds to the GPCR in the absence of a G protein peptidomimetic or a Gq/11 protein peptidomimetic relative to the presence of the G protein peptidomimetic or the Gq/11 protein peptidomimetic, or the IC50 value of a ligand, in particular an agonist, for binding to the GPCR in the absence of a G protein peptidomimetic or a Gq/11 protein peptidomimetic divided by the IC50 value of the ligand in the presence of the G protein peptidomimetic or the Gq/11 protein peptidomimetic in the same preparation, wherein said IC50 values are determined in a radioligand binding assay or radioligand displacement assay (RLA) as known to the skilled person. For example, a human muscarinic acetylcholine 1 receptor (M1R) radioligand binding assay using ^3H—N-methyl scopolamine (^3H-NMS) as the radioligand and increasing concentrations of acetylcholine chloride (agonist) as cold competitor may be used.
The membrane extracts were prepared from cells that overexpressed muscarinic acetylcholine 1 receptor (M1R), by resuspending the cell pellet in a buffer (1 ml buffer/2×1E7 cells) containing 20 mM Hepes (pH 7.4), 100 mM NaCl, Leupeptin and phenylmethylsulfonyl fluoride (PMSF). Afterwards the cells were vortexed and homogenized in ice using a small volume ULTRA-TURRAX® (6×10 sec). The cells were then centrifuged for 15 min at 16000 rcf, in a pre-cooled centrifuge (4° C.) and resuspended in the previous buffer containing 10% sucrose. Finally, the membranes were again homogenized in ice with the small volume ULTRA-TURRAX® (3×10 sec). The protein concentration in the membrane extracts was determined using a Pierce™ bicinchoninic acidv (BCA) Protein Assay Kit and the protein concentration was extrapolated from the Bovine Serum Albumine standard curve.
The M1R constructs used in this assay consisted of the full-length human muscarinic 1 receptor with a FLAG tag at the N-terminus. A buffer containing 20 mM Hepes pH 7.4, 100 mM NaCl, and 0.1% BSA was used for the ligands, membrane extracts and peptides (+1% dimethylsulfoxide (DMSO)). The competition assay was performed with [3H]—N-methyl scopolamine ([3H]-NMS) as radiolabeled antagonist, at a final concentration of 0.6 nM. A ten-fold dilution series of the agonist, acetylcholine chloride, was prepared to obtain a dose response curve. After incubation, the samples were harvested into filter plates (GF/C) and washed with ice cold washing buffer (20 mM Hepes pH 7.4) using the 96-well harvester. […]

The next series has as its system HEK293 1C8 cells. Briefly: MTT cytotoxicity assay. Type of series: cell-based, human. To be noted: varying concentrations up to 40 μM, 3 h 45 min. Here is the method:
Cells were washed two times with PBS and incubated with 3-(4,5-dimethylthiazol-2-yl)-2,5-diphenyltetrazolium bromide (MTT) during 3 h, at 37° C. Afterwards, cells were washed once with PBS and then incubated for 10 min with DMSO. Plates were analysed with a Tecan Spark 10 M microplate reader.
An MTT assay was used to assess the cytotoxicity of the non-fluorescent Gq/11 peptidomimetics of Example 5. An MTT assay is a colorimetric test that evaluates the cell metabolic activity and reflects the cell viability.
In general terms: Formazan colour is commonly taken as a measure of viable cells.

Turning to `CC[C@H](C)[C@H](NC(=O)[C@@H](NC(=O)[C@H](CC(=O)O)NC(=O)[C@H](CCCCN)NC(=O)[C@@H](NC(=O)[C@H](C)NC(=O)[C@H](C)NC(=O)[C@H](Cc1ccccc1)NC(=O)[C@H](CCCCN)NC(=O)[C@H](CCCCN)NC(=O)[C@H](CCCCN)NC(C)=O)C(C)C)[C@@H](C)O)C(=O)N[C@@H](CC(C)C)C(=O)N[C@@H](CCC(N)=O)C(=O)N[C@@H](CC(C)C)C(=O)N[C@@H](CC(N)=O)C(=O)N[C@@H](CC(C)C)C(=O)N[C@@H](CCCCN)C(=O)N[C@@H](CCC(=O)O)C(=O)N[C@@H](Cc1ccc(O)cc1)C(=O)N[C@@H](CC(N)=O)C(=O)N[C@@H](CC1CCCCC1)C(=O)N[C@H](C(=O)O)C(C)C` [SBL-GQ-04] (Ac-KKKFAAVKDTILQLNLKEYN[Cha]V-OH), the Shift in series [1] is given as 4. Also, the “cytotoxicity / viability” value in the series on HEK293 1C8 cells is on record as “No cytotoxicity”.
